Test results reported in US8969386B2, “Modulators of CFTR” (Vertex Pharmaceuticals Incorporated, priority 2007, dated 2015).

Biological target: T1, ΔF508-CFTR (Homo sapiens, UniProt P13569, DEL508-508)
T1 construct: expressed in transfected cells
Test: ΔF508-CFTR correction, membrane potential optical (FRET/VIPR) assay
Type: cell-based
Settings: NIH3T3 mouse fibroblasts stably expressing ΔF508-CFTR; for Emax: read-out: % Efficacy
Text: Assays for Detecting and Measuring ΔF508-CFTR Correction Properties of Compounds
Membrane potential optical methods for assaying ΔF508-CFTR modulation properties of compounds
The optical membrane potential assay utilized voltage-sensitive FRET sensors described by Gonzalez and Tsien (See Gonzalez, J. E. and R. Y. Tsien (1995) “Voltage sensing by fluorescence resonance energy transfer in single cells” Biophys J 69(4): 1272-80, and Gonzalez, J. E. and R. Y. Tsien (1997) “Improved indicators of cell membrane potential that use fluorescence resonance energy transfer” Chem Biol 4(4): 269-77) in combination with instrumentation for measuring fluorescence changes such as the Voltage/Ion Probe Reader (VIPR) (See Gonzalez, J. E., K. Oades, et al. (1999) “Cell-based assays and instrumentation for screening ion-channel targets” Drug Discov Today 4(9): 431-439).
These voltage sensitive assays are based on the change in fluorescence resonant energy transfer (FRET) between the membrane-soluble, voltage-sensitive dye, DiSBAC2(3), and a fluorescent phospholipid, CC2-DMPE, which is attached to the outer leaflet of the plasma membrane and acts as a FRET donor. Changes in membrane potential (Vm) cause the negatively charged DiSBAC2(3) to redistribute across the plasma membrane and the amount of energy transfer from CC2-DMPE changes accordingly. The changes in fluorescence emission were monitored using VIPR™ II, which is an integrated liquid handler and fluorescent detector designed to conduct cell-based screens in 96- or 384-well microtiter plates.
1. Identification of Correction Compounds
To identify small molecules that correct the trafficking defect associated with ΔF508-CFTR; a single-addition HTS assay format was developed. The cells were incubated in serum-free medium for 16 hrs at 37° C. in the presence or absence (negative control) of test compound. As a positive control, cells plated in 384-well plates were incubated for 16 hrs at 27° C. to “temperature-correct” ΔF508-CFTR. The cells were subsequently rinsed 3× with Krebs Ringers solution and loaded with the voltage-sensitive dyes. To activate ΔF508-CFTR, 10 μM forskolin and the CFTR potentiator, genistein (20 μM), were added along with Cl^−-free medium to each well. The addition of Cl^−-free medium promoted Cl^− efflux in response to ΔF508-CFTR activation and the resulting membrane depolarization was optically monitored using the FRET-based voltage-sensor dyes.
NIH3T3 mouse fibroblasts stably expressing ΔF508-CFTR are used for optical measurements of membrane potential. The cells are maintained at 37° C. in 5% CO2 and 90% humidity in Dulbecco's modified Eagle's medium supplemented with 2 mM glutamine, 10% fetal bovine serum, 1×NEAA, β-ME, 1× pen/strep, and 25 mM HEPES in 175 cm^2 culture flasks. For all optical assays, the cells were seeded at 30,000/well in 384-well matrigel-coated plates and cultured for 2 hrs at 37° C. before culturing at 27° C. for 24 hrs for the potentiator assay. For the correction assays, the cells are cultured at 27° C. or 37° C. with and without compounds for 16-24 hours Electrophysiological Assays for assaying ΔF508-CFTR modulation properties of compounds

T1 sequence (P13569 with tags, fused parts or gaps DEL508-508): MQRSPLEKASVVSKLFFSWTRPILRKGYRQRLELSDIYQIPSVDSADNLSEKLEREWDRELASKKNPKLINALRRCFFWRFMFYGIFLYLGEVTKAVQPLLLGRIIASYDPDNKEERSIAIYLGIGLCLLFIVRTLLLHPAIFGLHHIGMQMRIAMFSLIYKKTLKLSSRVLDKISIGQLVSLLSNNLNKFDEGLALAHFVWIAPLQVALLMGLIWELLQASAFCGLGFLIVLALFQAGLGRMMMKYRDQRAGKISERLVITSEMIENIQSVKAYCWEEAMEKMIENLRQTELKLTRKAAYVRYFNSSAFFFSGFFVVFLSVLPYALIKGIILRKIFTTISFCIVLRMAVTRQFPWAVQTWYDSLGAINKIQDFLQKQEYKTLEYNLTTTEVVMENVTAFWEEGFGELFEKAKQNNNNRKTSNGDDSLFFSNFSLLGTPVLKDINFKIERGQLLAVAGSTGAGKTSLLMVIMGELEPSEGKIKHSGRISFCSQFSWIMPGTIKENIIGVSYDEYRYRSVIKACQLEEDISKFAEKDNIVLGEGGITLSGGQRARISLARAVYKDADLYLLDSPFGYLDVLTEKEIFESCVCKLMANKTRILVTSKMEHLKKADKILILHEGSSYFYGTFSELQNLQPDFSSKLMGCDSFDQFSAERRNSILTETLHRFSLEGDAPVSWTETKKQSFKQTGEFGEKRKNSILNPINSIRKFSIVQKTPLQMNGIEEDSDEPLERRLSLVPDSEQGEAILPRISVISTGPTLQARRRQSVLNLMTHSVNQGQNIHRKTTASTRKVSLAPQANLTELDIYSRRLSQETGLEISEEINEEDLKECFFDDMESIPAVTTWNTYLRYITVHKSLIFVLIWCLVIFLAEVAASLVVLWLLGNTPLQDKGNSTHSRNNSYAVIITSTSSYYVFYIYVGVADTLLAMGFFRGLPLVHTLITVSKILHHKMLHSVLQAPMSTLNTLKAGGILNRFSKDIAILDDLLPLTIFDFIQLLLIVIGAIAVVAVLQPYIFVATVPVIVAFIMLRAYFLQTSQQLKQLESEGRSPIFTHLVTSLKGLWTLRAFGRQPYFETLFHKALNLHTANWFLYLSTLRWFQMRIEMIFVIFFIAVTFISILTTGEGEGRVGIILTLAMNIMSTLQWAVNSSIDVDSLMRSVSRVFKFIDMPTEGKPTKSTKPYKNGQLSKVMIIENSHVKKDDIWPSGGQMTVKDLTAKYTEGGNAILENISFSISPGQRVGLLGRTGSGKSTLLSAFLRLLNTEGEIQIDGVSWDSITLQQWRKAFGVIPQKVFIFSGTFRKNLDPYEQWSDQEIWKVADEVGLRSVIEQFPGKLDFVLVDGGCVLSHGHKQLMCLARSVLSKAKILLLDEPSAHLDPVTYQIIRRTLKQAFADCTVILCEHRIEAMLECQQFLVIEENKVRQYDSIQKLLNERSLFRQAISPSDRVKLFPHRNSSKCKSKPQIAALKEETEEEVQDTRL

Question: Which results are given for `Cc1ccc(NC(=O)C2(c3ccc4c(c3)OC(F)(F)O4)CC2)nc1-c1cccc(=O)[nH]1` [Compound 50]?
Answer: EC50: < 2 µM; Emax: 50 to 100%

Question: Which results are given for `Cc1ccc(NC(=O)C2(c3ccc4c(c3)OC(F)(F)O4)CC2)nc1-c1ccc(=O)n(C)c1` [Compound 52]?
Answer: EC50: < 2 µM; Emax: 50 to 100%

Question: What does the source list for `Cc1cc(NC(=O)C2(c3ccc4c(c3)OC(F)(F)O4)CC2)nc(-c2c[nH]c(=O)c(C)c2)c1` [Compound 107]?
Answer: EC50: < 2 µM; Emax: > 100%

Question: How did the EC50 turn out when `Cc1ccc(NC(=O)C2(c3ccc4c(c3)OC(F)(F)O4)CC2)nc1-c1cc(F)c[nH]c1=O` [Compound 82] was run?
Answer: < 2 µM

Question: And the Emax?
Answer: > 100%

Question: What does the source list for `Cc1ccc(NC(=O)C2(c3ccc4c(c3)CCO4)CC2)nc1-c1ccc(=O)[nH]c1` [Compound 78]?
Answer: EC50: < 2 µM; Emax: 50 to 100%

Question: Which results are given for `Cc1ccc(NC(=O)C2(c3ccc4c(c3)OC(F)(F)O4)CC2)nc1-c1ccc(=O)n(CC(=O)NC#N)c1` [Compound 74]?
Answer: EC50: 2 to 5 µM; Emax: < 50%

Question: With `COc1ccc(C2(C(=O)Nc3ccc(C)c(-c4ccc(OC)nc4)n3)CC2)cc1` [Compound 2] as the compound, how does the EC50 read?
Answer: < 2 µM

Question: What about the Emax of the same compound?
Answer: 50 to 100%

Question: What does the source list for `COc1cccc(-c2nc(NC(=O)C3(c4ccc5c(c4)OC(F)(F)O5)CC3)ccc2C)n1` [Compound 35]?
Answer: EC50: < 2 µM; Emax: 50 to 100%

Question: Which results are given for `COc1ccc(C2(C(=O)Nc3ccc(C)c(-c4ccnc(OC)c4)n3)CC2)cc1` [Compound 45]?
Answer: EC50: < 2 µM; Emax: > 100%

Question: Which results are given for `COc1ccc(C2(C(=O)Nc3ccc(C)c(-c4c[nH]c(=O)c(C)c4)n3)CC2)cc1Cl` [Compound 62]?
Answer: EC50: < 2 µM; Emax: 50 to 100%

Question: Which results are given for `Cc1ccc(NC(=O)C2(c3ccc4c(c3)OC(F)(F)O4)CC2)nc1-c1ccc(=O)n(CC#N)c1` [Compound 97]?
Answer: EC50: < 2 µM; Emax: 50 to 100%

Question: Which results are given for `Cc1ccc(NC(=O)C2(c3ccc4c(c3)OC(F)(F)O4)CC2)nc1-c1c[nH]c(=O)c(Cl)c1` [Compound 25]?
Answer: EC50: < 2 µM; Emax: > 100%

Question: What does the source list for `COc1ccc(-c2cc(C)cc(NC(=O)C3(c4ccc5c(c4)OC(F)(F)O5)CC3)n2)cn1` [Compound 38]?
Answer: EC50: < 2 µM; Emax: > 100%

Question: With `CC(=O)Nc1cc(-c2nc(NC(=O)C3(c4ccc5c(c4)OC(F)(F)O5)CC3)ccc2C)c[nH]c1=O` [Compound 4] as the compound, how does the EC50 read?
Answer: < 2 µM

Question: And the Emax?
Answer: 50 to 100%

Question: How did the EC50 turn out when `Cc1cc(NC(=O)C2(c3ccc4c(c3)OC(F)(F)O4)CC2)nc(-c2ccc(=O)[nH]c2C)c1` [Compound 117] was run?
Answer: < 2 µM

Question: And the Emax?
Answer: > 100%

Question: Which EC50 does the source give for `COC(=O)Cn1ccc(-c2nc(NC(=O)C3(c4ccc5c(c4)OC(F)(F)O5)CC3)ccc2C)cc1=O` [Compound 16] here?
Answer: < 2 µM

Question: And the Emax?
Answer: 50 to 100%
